≈ marks a conversion by molar mass, not a printed value. Each block holds one compound with its values, some of them ahead of it.
Assays:
Trypanosoma brucei [1] = test: Antitrypanosomal activity against bloodstream form of Trypanosoma brucei clone 427-221a measured after 72 hrs by resazurin dye based assay; format: functional
Trypanosoma brucei [2] = test: Antitrypanosomal activity against bloodstream form of Trypanosoma brucei clone 427-221a measured after 72 hrs by microscopic analysis; format: functional
Plasmodium falciparum [3] = test: Antimalarial activity against Plasmodium falciparum Nigerian infected in human red blood cells after 48 hrs by [3H]-hypoxanthine incorporation assay; format: functional, organism-based
Plasmodium chabaudi = test: Antiplasmodial activity against Plasmodium chabaudi infected in Swiss mouse assessed as reduction in parasitemia administered twice daily via ip for 4 days starting from 1.5 hrs post infection; format: functional
Plasmodium berghei = test: Antimalarial activity against Plasmodium berghei infected in po dosed mouse; format: functional
Cryptosporidium parvum [4] = test: Antiparasitic activity against Cryptosporidium parvum infected in CB.17 SCID mouse assessed as faecal parasite load at 3 mg/kg, administered once daily for 3 days by OW50-FITC staining based flow cytometry relative to control; format: functional
Plasmodium falciparum [5] = test: Antiplasmodial activity against trophozoite stage of Plasmodium falciparum 3D7 measured after 48 hrs by [3H]-hypoxanthine incorporation assay; format: functional, organism-based
Toxoplasma gondii = test: Antiparasitic activity against Toxoplasma gondii infected in Scottish Blackface ewes assessed as mortality at 16.8 to 27.9 mg administered daily for 10 days prior to parasitic infection (reference value: 55.2%); format: functional
Leishmania major [6] = test: Antileishmanial activity against promastigote stage of Leishmania major MHOM/IL/81/Friedlin transformed from lymph node cultures of infected Balb/c mouse measured after 48 hrs by luminometry; format: functional, organism-based
Leishmania major [7] = test: Antileishmanial activity against […] measured after 48 hrs by luminometry; format: functional, organism-based
Leishmania donovani [8] = test: Antileishmanial activity against Leishmania donovani MHOM/SD/001S-2D promastigotes transformed from splenic cultures of infected Chester Beatty hamster measured after 48 hrs by CellTiter-Glo luminescent cell viability assay; format: functional, organism-based
Leishmania donovani [9] = test: Antileishmanial activity against Leishmania donovani MHOM/SD/001S-2D […] measured after 48 hrs by CellTiter-Glo luminescent cell viability assay; format: functional, organism-based
Cryptosporidium parvum [10] = test: Antiparasitic activity against Cryptosporidium parvum GP-60 subtype 2a A15G2RI infected in human HCT8 cells assessed as inhibition of parasite development at 0.144 uM measured 27 hrs post infection by qPCR analysis; format: functional; details: HCT-8, 27 h
[11] = system: Plasmodium vinckei petteri; test: Antimalarial activity against Plasmodium vinckei petteri infected in IOPS OF1 mouse assessed as reduction in parasitemia at 10 mg/kg, sc administered once daily for 4 days relative to control; format: functional; set-up: scale not given: the % may be the effect or the level left
[12] = system: Plasmodium vinckei petteri; test: Antimalarial activity against Plasmodium vinckei petteri infected in IOPS OF1 mouse assessed as reduction in parasitemia administered once daily via sc for 4 days; format: functional; details: 96 h
Eimeria tenella = test: Coccidiostat activity against Eimeria tenella infected in po dosed chicken; format: functional
Leishmania donovani [13] = test: Antileishmanial activity against Leishmania donovani MHOM/SD/00/1S-2D promastigotes by luminescence assay; format: functional, organism-based
Schistosoma mansoni = test: Antiparasitic activity against Schistosoma mansoni Puerto Rico PR-1 after 48 hrs by fluorescence based lactate release assay; format: functional, organism-based; details: Puerto Rico PR-1, 48 h

Structure (SMILES): CCCCNC(=O)[C@H](CC)[C@H]1CC[C@H](C)[C@H]([C@@H](C)[C@H](O)[C@H](C)C(=O)[C@H](CC)[C@H]2O[C@]3(C=C[C@@H](O)[C@]4(CC[C@@](C)([C@H]5CC[C@](O)(CC)[C@H](C)O5)O4)O3)[C@H](C)C[C@@H]2C)O1
- MIC (Trypanosoma brucei [1]): 0.1 µM (≈ 0.0806 µg/mL)
- GI50 (Trypanosoma brucei [2]): 40 nM

- MIC (Trypanosoma brucei [1]): 0.1 to 1 µM (≈ 0.0833 to 0.833 µg/mL)
- GI50 (Trypanosoma brucei [2]): 57 nM
Structure (SMILES): CC[C@@H](C(=O)[C@@H](C)[C@@H](O)[C@H](C)[C@@H]1O[C@@H]([C@@H](CC)C(=O)OCC(F)(F)F)CC[C@@H]1C)[C@H]1O[C@]2(C=C[C@@H](O)[C@]3(CC[C@@](C)([C@H]4CC[C@](O)(CC)[C@H](C)O4)O3)O2)[C@H](C)C[C@@H]1C

Structure (SMILES): CC[C@@H](C(=O)[C@@H](C)[C@@H](O)[C@H](C)CCc1c(Br)cc(C)c(O)c1C(=O)[O-])[C@H]1O[C@](CC)([C@H]2CC[C@](O)(CC)[C@H](C)O2)C[C@@H]1C.[Na+]
- IC50 (Plasmodium falciparum [3]): 0.069 µg/mL
- ED50 (Plasmodium chabaudi): 1.4 mg/kg

Structure (SMILES): CC[C@@]1([C@@H]2O[C@@H]([C@H]3O[C@@](O)(COC(=O)Nc4ccc(Oc5ccccc5)cc4)[C@H](C)C[C@@H]3C)C[C@@H]2C)CC[C@H]([C@]2(C)CC[C@]3(C[C@H](O)[C@@H](C)[C@@H]([C@@H](C)[C@@H](OC)[C@@H](C)C(=O)[O-])O3)O2)O1.[Na+]
- ED50 (Plasmodium berghei): 8 mg/kg

Structure (SMILES): CC[C@@]1([C@@H]2O[C@@H]([C@H]3O[C@@](O)(COS(=O)(=O)c4ccc(C)cc4)[C@H](C)C[C@@H]3C)C[C@@H]2C)CC[C@H]([C@]2(C)CC[C@]3(C[C@H](O)[C@@H](C)[C@@H]([C@@H](C)[C@@H](OC)[C@@H](C)C(=O)O)O3)O2)O1
- ED50 (Plasmodium berghei): 1.25 mg/kg

- EC50 (Plasmodium falciparum [5]): 0.44 nM
Structure (SMILES): CO[C@@H]1[C@@H](OC)[C@H](C)[C@@](O)(CC(=O)O)O[C@H]1[C@H](C)[C@H]1O[C@@]2(CC[C@@](C)([C@H]3CC[C@@](C)([C@@H]4O[C@@H]([C@H]5O[C@](C)(O)[C@H](C)C[C@@H]5C)C[C@@H]4O[C@@H]4C[C@@H](OC)[C@@H](OC)[C@H](C)O4)O3)O2)C[C@H](O)[C@H]1C
- Activity (Cryptosporidium parvum [4]): 96%

Structure (SMILES): CC[C@@]1([C@@H]2O[C@@H]([C@H]3O[C@@](O)(CO)[C@H](C)C[C@@H]3C)C[C@@H]2C)CC[C@H]([C@]2(C)CC[C@]3(C[C@H](O)[C@@H](C)[C@@H]([C@@H](C)[C@@H](OC)[C@@H](C)C(=O)O)O3)O2)O1
- Activity (Toxoplasma gondii): 16.7%
- EC50 (Leishmania major [6]): 90 nM
- EC50 (Leishmania major [7]): 380 nM
- EC50 (Leishmania donovani [8]): 850 nM
- EC50 (Leishmania donovani [9]): 230 nM
- inhibition at 0.144 µM (Cryptosporidium parvum [10]): 98%
- Activity [11]: 100%
- ED50 [12]: 1.1 mg/kg
- ED90 [12]: 3.5 mg/kg

Structure (SMILES): CC[C@@]1([C@@H]2O[C@@H]([C@H]3O[C@@](O)(COC(=O)Nc4ccc(F)cc4)[C@H](C)C[C@@H]3C)C[C@@H]2C)CC[C@H]([C@]2(C)CC[C@]3(C[C@H](O)[C@@H](C)[C@@H]([C@@H](C)[C@@H](OC)[C@@H](C)C(=O)[O-])O3)O2)O1.[Na+]
- ED50 (Eimeria tenella): 70 ppm

Structure (SMILES): CC[C@@]1([C@@H]2O[C@@H]([C@H]3O[C@@](O)(COC(=O)NCCc4ccccc4)[C@H](C)C[C@@H]3C)C[C@@H]2C)CC[C@H]([C@]2(C)CC[C@]3(C[C@H](O)[C@@H](C)[C@@H]([C@@H](C)[C@@H](OC)[C@@H](C)C(=O)[O-])O3)O2)O1.[Na+]
- ED50 (Eimeria tenella): 50 ppm

Structure (SMILES): CC[C@@]1([C@@H]2O[C@@H]([C@H]3O[C@@](O)(COC(=O)Nc4ccc(I)cc4)[C@H](C)C[C@@H]3C)C[C@@H]2C)CC[C@H]([C@]2(C)CC[C@]3(C[C@H](O)[C@@H](C)[C@@H]([C@@H](C)[C@@H](OC)[C@@H](C)C(=O)[O-])O3)O2)O1.[Na+]
- ED50 (Plasmodium berghei): 5 mg/kg

Structure (SMILES): CC[C@@]1([C@@H]2O[C@@H]([C@H]3O[C@@](O)(COC(=O)Nc4ccc(Br)cc4)[C@H](C)C[C@@H]3C)C[C@@H]2C)CC[C@H]([C@]2(C)CC[C@]3(C[C@H](O)[C@@H](C)[C@@H]([C@@H](C)[C@@H](OC)[C@@H](C)C(=O)[O-])O3)O2)O1.[Na+]
- ED50 (Plasmodium berghei): 16 mg/kg

Structure (SMILES): CC[C@@]1([C@@H]2O[C@@H]([C@H]3O[C@@]4(COC(=O)O4)[C@H](C)C[C@@H]3C)C[C@@H]2C)CC[C@H]([C@]2(C)CC[C@]3(C[C@H](O)[C@@H](C)[C@@H]([C@@H](C)[C@@H](OC)[C@@H](C)C(=O)O)O3)O2)O1
- ED50 (Plasmodium berghei): 0.75 mg/kg

Structure (SMILES): CC[C@@]1([C@@H]2O[C@@H]([C@H]3O[C@@](O)(COC(=O)Nc4ccccc4)[C@H](C)C[C@@H]3C)C[C@@H]2C)CC[C@H]([C@]2(C)CC[C@]3(C[C@H](O)[C@@H](C)[C@@H]([C@@H](C)[C@@H](OC)[C@@H](C)C(=O)[O-])O3)O2)O1.[Na+]
- ED50 (Plasmodium berghei): 4 mg/kg

Structure (SMILES): CC[C@@]1([C@@H]2O[C@@H]([C@H]3O[C@@](O)(COC(=O)Nc4ccc(C)cc4)[C@H](C)C[C@@H]3C)C[C@@H]2C)CC[C@H]([C@]2(C)CC[C@]3(C[C@H](O)[C@@H](C)[C@@H]([C@@H](C)[C@@H](OC)[C@@H](C)C(=O)[O-])O3)O2)O1.[Na+]
- ED50 (Eimeria tenella): 70 ppm

Structure (SMILES): CC[C@@]1([C@@H]2O[C@@H]([C@H]3O[C@@](O)(COC(=O)Nc4ccc(Cl)cc4)[C@H](C)C[C@@H]3C)C[C@@H]2C)CC[C@H]([C@]2(C)CC[C@]3(C[C@H](O)[C@@H](C)[C@@H]([C@@H](C)[C@@H](OC)[C@@H](C)C(=O)[O-])O3)O2)O1.[Na+]
- ED50 (Plasmodium berghei): 2 mg/kg

Structure (SMILES): CC[C@@]1([C@@H]2O[C@@H]([C@H]3O[C@@](O)(COC(=O)Nc4ccc([N+](=O)[O-])cc4)[C@H](C)C[C@@H]3C)C[C@@H]2C)CC[C@H]([C@]2(C)CC[C@]3(C[C@H](O)[C@@H](C)[C@@H]([C@@H](C)[C@@H](OC)[C@@H](C)C(=O)[O-])O3)O2)O1.[Na+]
- ED50 (Plasmodium berghei): 5 mg/kg

Structure (SMILES): CC[C@@H](C(=O)O)[C@@H]1O[C@@H]([C@@H](C)[C@H](O)[C@H](C)C(=O)[C@H](CC)[C@H]2O[C@]3(C=C[C@@H](O)[C@]4(CC[C@@](C)([C@H]5CC[C@](O)(CC)[C@H](C)O5)O4)O3)[C@H](C)C[C@@H]2C)[C@@H](C)C[C@@H]1C [NARASIN]
- EC50 (Leishmania donovani [13]): 2000 nM

Structure (SMILES): CO[C@@H]1C[C@@H](C[C@H]2CC[C@H](C)[C@H]([C@@H](C)C(=O)O)O2)O[C@]2(O[C@](C)([C@H]3CC[C@@](C)([C@@H]4O[C@@H]([C@H]5O[C@@](O)(CO)[C@H](C)C[C@@H]5C)C[C@@H]4C)O3)C[C@H]2C)[C@@H]1C [NIGERICIN]
- ED50 [12]: 1.8 mg/kg
- ED90 [12]: 4.6 mg/kg

Structure (SMILES): CC[C@@H](C(=O)[C@@H](C)[C@@H](O)[C@H](C)[C@@H]1O[C@@H]([C@@H](CC)C(=O)O)CC[C@@H]1C)[C@H]1O[C@]2(C=C[C@@H](O)[C@]3(CC[C@@](C)([C@H]4CC[C@](O)(CC)[C@H](C)O4)O3)O2)[C@H](C)C[C@@H]1C [SALINOMYCIN]
- IC50 (Schistosoma mansoni): 32600 nM
- EC50 (Leishmania donovani [13]): 4000 nM
